In PubChem BioAssay AID2060887 (Molecular Pharmacology Branch, DTP, NCI, 2025):

Tested on: 782815-120-R-J1-PDC complex spheroid viability
Test: Anticancer human tumor 782815-120-R-J1-PDC patient-derived colon adenocarcinoma cell line growth inhibition [RAS]
Settings: for IC50: curve of first compound; for viability, T/C: stronger effect = lower value
From the text: RAS pathway inhibitors in Combinations in Complex Spheroids
A high-throughput screen of multi-cell type tumor spheroids was designed to identify active combinations of RAS pathway inhibitors and targeted small molecules. Complex spheroids include a stromal component modeled by human endothelial cells (HUVEC) and fibroblasts modeled by human mesenchymal stem cells (MSCs). The concentration ranges selected for each drug and investigational agent were based upon clinically achievable concentrations if the clinical Cmax of the agent was known.
Compounds. The drugs and investigational agents: abemaciclib (NSC768073), cobimetinib (NSC768068), divarasib (GDC6063, NSC841802), docetaxel (NSC628503), GDC-1971 (RLY-1971, NSC841576), gemcitabine (NSC613327), inavolisib (NSC800729), ipatasertib (NSC767898), KB-0742 (NSC834161), MRTX-1133 (NSC836407), osimertinib (NSC779217), RMC-4630 (NSC839698), RMC-6236 (NSC851965), RMC-6291 (NSC852671), Ro-3306 (NSC812927), sapanisertib (NSC764658), SN-38 (NSC673596), staurosporine (NSC755774), SY5609 (NSC837396), and tovorafenib (DAY101, NSC766906), were obtained from the National Cancer Institute (NCI) Developmental Therapeutics Program Chemical Repository. The FDA-approved anticancer drug set is available from the NCI Developmental Therapeutics Program. […] The stock solutions were prepared in dimethyl sulfoxide (DMSO, Sigma-Aldrich, St. Louis, MO, cat. D2650) at 800-fold the tested concentration and stored at -70 degrees C prior to their use. All drugs and investigational agents were tested over a range starting from a high concentration at or near the clinical Cmax and decreasing in half-log increments. If the clinical Cmax for an agent had not been determined, the highest concentration tested was 10 microM.
Cell Culture. All cells were maintained in an incubator at 37 degrees C and 5% CO2 with 95% humidity. The PDC lines were cultured according to standard operating procedures established by the NCI PDMR. All PDCs were thawed and cultured in Matrigel-coated flasks prepared with a working solution of 1X Ham's F-12 nutrient mix, without supplementation (Invitrogen, Waltham, MA, cat. 11765054), 100 U/mL penicillin-streptomycin (Invitrogen, cat. 15140122), and 2.5% Matrigel (Corning Inc., Corning, NY, cat. 354248) for the first three passages. The 362531-283-R-J2-PDC and 782815-120-R-J1-PDC lines were cultured in 6C/Colon 1B media, which includes advanced DMEM/F-12 (Thermo Fisher Scientific, cat. 12634028), 10 mM HEPES (Thermo Fisher Scientific, cat. 15630080), 1X GlutaMAX supplement (Thermo Fisher Scientific, cat. 35050061), 0.1 mg/mL primocin (InvivoGen, San Diego, CA, cat. ant-pm-2), 10% defined fetal bovine serum, heat inactivated (HyClone Laboratories Inc., Logan, UT, cat. SH30070.03HI), 50% L-WRN conditioned media (ATCC, cat. CRL-3276), 1.25 mM N-Acetyl-L-cysteine (Sigma-Aldrich, cat. A9165), 10 mM nicotinamide (Sigma-Aldrich, cat. N0636), 1X B-27 supplement (Thermo Fisher Scientific, cat. 17504044), 1X N-2 supplement (Thermo Fisher Scientific, cat. 17502048), 50 ng/mL human EGF (Thermo Fisher Scientific, cat. PHG0311), and 10 microM Y-27632 dihydrochloride (Tocris Bioscience, cat. 1254). The K12877-001-R-J1-PDC line was cultured in 6I media, which includes all 6C/Colon 1B media plus 10 ng/mL human FGF-10 (PeproTech, cat. 100-26), 1 ng/mL human FGF-2 (PeproTech, cat. 100-18B), 1 µM prostaglandin E2 (Tocris Bioscience, cat. 2296), […] hydrocortisone (Sigma-Aldrich, cat. H4001), and […] bovine insulin (Sigma-Aldrich, cat. I6634). The K86415-001-R-J1-PDC line was cultured in 6D media, which includes all 6C/Colon 1B media components minus the L-WRN conditioned media. The 485176-168-R4-J1-PDC was cultured in PANC media, which includes all 6C/Colon 1B media plus 100 ng/mL human FGF-10 (PeproTech, cat. 100-26), 500 nM SB-431542 (Selleckchem, cat. S1067), and 10 nM gastrin (Tocris Bioscience, cat. 3006). […]

[1] = second compound 0.000949 µM, first compound 0.0316 µM
[2] = second compound 0.000949 µM, first compound 0.1 µM
[3] = second compound 0.000949 µM, first compound 0.316 µM
[4] = second compound 0.000949 µM, first compound 1 µM
[5] = second compound 0.003 µM, first compound 0.0316 µM
[6] = second compound 0.003 µM, first compound 0.1 µM
[7] = second compound 0.003 µM, first compound 0.316 µM
[8] = second compound 0.003 µM, first compound 1 µM
[9] = second compound 0.00949 µM, first compound 0.0316 µM
[10] = second compound 0.00949 µM, first compound 0.1 µM
[11] = second compound 0.00949 µM, first compound 0.316 µM
[12] = second compound 0.00949 µM, first compound 1 µM
[13] = second compound 0.03 µM, first compound 0.0316 µM
[14] = second compound 0.03 µM, first compound 0.1 µM
[15] = second compound 0.03 µM, first compound 0.316 µM
[16] = second compound 0.03 µM, first compound 1 µM
[17] = second compound 0.0949 µM, first compound 0.0316 µM
[18] = second compound 0.0949 µM, first compound 0.1 µM
[19] = second compound 0.0949 µM, first compound 0.316 µM
[20] = second compound 0.0949 µM, first compound 1 µM
[21] = second compound 0.3 µM, first compound 0.0316 µM
[22] = second compound 0.3 µM, first compound 0.1 µM
[23] = second compound 0.3 µM, first compound 0.316 µM
[24] = second compound 0.3 µM, first compound 1 µM
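Also: spheroids exposed to compounds for 7 days before reading.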
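For viability, T/C in this document: 100% = DMSO vehicle control viability.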

Q: With `CCC(CC)c1cc(NC2CCC(N)C2)n2nccc2n1` (centres undefined) + CCn1c(-c2cccnc2C(C)OC)c2c3cc(ccc31)N1CCOC(CC(NC(=O)C(C(C)C)N(C)C(=O)C3(F)CCN(C(=O)C#CC(C)(C)N(C)C)CC3)C(=O)N3CCCC(N3)C(=O)OCC(C)(C)C2)C1 as the molecule, how does the IC50 (second compound 0.000949 µM) read?
A: 2930 nM

Q: And the IC50 (second compound 0.003 µM)?
A: 3080 nM

Q: And the IC50 (second compound 0.00949 µM)?
A: 2860 nM

Q: What about the IC50 (second compound 0.03 µM) of the same molecule?
A: 2740 nM

Q: What about the IC50 (second compound 0.0949 µM) of the same molecule?
A: 2850 nM

Q: And the IC50 (second compound 0.3 µM)?
A: 2360 nM

Q: What about the viability, T/C [1] of the same molecule?
A: 98.6%

Q: And the viability, T/C [2]?
A: 90.5%

Q: What about the viability, T/C [3] of the same molecule?
A: 103%

Q: What about the viability, T/C [4] of the same molecule?
A: 100%

Q: What about the viability, T/C (second compound 0.000949 µM, first compound 3.16 µM) of the same molecule?
A: 46.6%

Q: And the viability, T/C (second compound 0.000949 µM, first compound 10 µM)?
A: 2.15%

Q: And the viability, T/C [5]?
A: 97.9%

Q: What about the viability, T/C [6] of the same molecule?
A: 92.7%

Q: And the viability, T/C [7]?
A: 97.4%

Q: And the viability, T/C [8]?
A: 96.8%

Q: What about the viability, T/C (second compound 0.003 µM, first compound 3.16 µM) of the same molecule?
A: 48.9%

Q: And the viability, T/C (second compound 0.003 µM, first compound 10 µM)?
A: 1.8%

Q: What about the viability, T/C [9] of the same molecule?
A: 101%

Q: And the viability, T/C [10]?
A: 102%

Q: What about the viability, T/C [11] of the same molecule?
A: 95.9%

Q: And the viability, T/C [12]?
A: 102%

Q: What about the viability, T/C (second compound 0.00949 µM, first compound 3.16 µM) of the same molecule?
A: 45.1%

Q: What about the viability, T/C (second compound 0.00949 µM, first compound 10 µM) of the same molecule?
A: 2.14%

Q: What about the viability, T/C [13] of the same molecule?
A: 94.2%

Q: What about the viability, T/C [14] of the same molecule?
A: 96.5%

Q: And the viability, T/C [15]?
A: 103%

Q: What about the viability, T/C [16] of the same molecule?
A: 108%

Q: What about the viability, T/C (second compound 0.03 µM, first compound 3.16 µM) of the same molecule?
A: 42.8%

Q: What about the viability, T/C (second compound 0.03 µM, first compound 10 µM) of the same molecule?
A: 2.25%

Q: What about the viability, T/C [17] of the same molecule?
A: 97.6%

Q: What about the viability, T/C [18] of the same molecule?
A: 99%

Q: What about the viability, T/C [19] of the same molecule?
A: 97.4%

Q: What about the viability, T/C [20] of the same molecule?
A: 106%

Q: And the viability, T/C (second compound 0.0949 µM, first compound 3.16 µM)?
A: 45%

Q: What about the viability, T/C (second compound 0.0949 µM, first compound 10 µM) of the same molecule?
A: 2.54%

Q: What about the viability, T/C [21] of the same molecule?
A: 91.9%

Q: What about the viability, T/C [22] of the same molecule?
A: 92.6%

Q: What about the viability, T/C [23] of the same molecule?
A: 94.3%

Q: And the viability, T/C [24]?
A: 101%

Q: What about the viability, T/C (second compound 0.3 µM, first compound 3.16 µM) of the same molecule?
A: 34.9%

Q: And the viability, T/C (second compound 0.3 µM, first compound 10 µM)?
A: 3.21%

Q: For `C=CC(=O)N1CCN(c2nc(OCC3CCCN3C)nc3c(F)c(-c4nc(N)cc(C)c4C(F)(F)F)c(Cl)cc23)C(C)C1` (centres undefined) + CCn1c(-c2cccnc2C(C)OC)c2c3cc(ccc31)N1CCOC(CC(NC(=O)C(C(C)C)N(C)C(=O)C3(F)CCN(C(=O)C#CC(C)(C)N(C)C)CC3)C(=O)N3CCCC(N3)C(=O)OCC(C)(C)C2)C1, which IC50 (second compound 0.000949 µM) is on record?
A: > 1000 nM

Q: What about the IC50 (second compound 0.003 µM) of the same molecule?
A: > 1000 nM

Q: And the IC50 (second compound 0.00949 µM)?
A: > 1000 nM

Q: What about the IC50 (second compound 0.03 µM) of the same molecule?
A: > 1000 nM

Q: What about the IC50 (second compound 0.0949 µM) of the same molecule?
A: > 1000 nM

Q: And the IC50 (second compound 0.3 µM)?
A: > 1000 nM

Q: And the viability, T/C (second compound 0.000949 µM, first compound 0.00316 µM)?
A: 95.1%

Q: And the viability, T/C (second compound 0.000949 µM, first compound 0.01 µM)?
A: 96%

Q: What about the viability, T/C [1] of the same molecule?
A: 101%

Q: And the viability, T/C [2]?
A: 83.2%

Q: And the viability, T/C [3]?
A: 94.4%

Q: What about the viability, T/C [4] of the same molecule?
A: 94.5%

Q: What about the viability, T/C (second compound 0.003 µM, first compound 0.00316 µM) of the same molecule?
A: 91.3%

Q: And the viability, T/C (second compound 0.003 µM, first compound 0.01 µM)?
A: 97%

Q: What about the viability, T/C [5] of the same molecule?
A: 101%

Q: What about the viability, T/C [6] of the same molecule?
A: 94.8%

Q: What about the viability, T/C [7] of the same molecule?
A: 93.3%

Q: What about the viability, T/C [8] of the same molecule?
A: 94.7%

Q: And the viability, T/C (second compound 0.00949 µM, first compound 0.00316 µM)?
A: 87.2%

Q: What about the viability, T/C (second compound 0.00949 µM, first compound 0.01 µM) of the same molecule?
A: 97.2%

Q: And the viability, T/C [9]?
A: 89.4%

Q: And the viability, T/C [10]?
A: 95.6%

Q: What about the viability, T/C [11] of the same molecule?
A: 92.9%

Q: What about the viability, T/C [12] of the same molecule?
A: 99.1%

Q: And the viability, T/C (second compound 0.03 µM, first compound 0.00316 µM)?
A: 86.8%

Q: What about the viability, T/C (second compound 0.03 µM, first compound 0.01 µM) of the same molecule?
A: 95%

Q: What about the viability, T/C [13] of the same molecule?
A: 87%

Q: And the viability, T/C [14]?
A: 99.4%

Q: And the viability, T/C [15]?
A: 94.4%

Q: And the viability, T/C [16]?
A: 92.1%

Q: And the viability, T/C (second compound 0.0949 µM, first compound 0.00316 µM)?
A: 86.8%

Q: What about the viability, T/C (second compound 0.0949 µM, first compound 0.01 µM) of the same molecule?
A: 105%

Q: And the viability, T/C [17]?
A: 99%

Q: And the viability, T/C [18]?
A: 101%

Q: And the viability, T/C [19]?
A: 101%

Q: What about the viability, T/C [20] of the same molecule?
A: 96.4%

Q: And the viability, T/C (second compound 0.3 µM, first compound 0.00316 µM)?
A: 93.4%

Q: What about the viability, T/C (second compound 0.3 µM, first compound 0.01 µM) of the same molecule?
A: 84.3%

Q: What about the viability, T/C [21] of the same molecule?
A: 97.5%

Q: And the viability, T/C [22]?
A: 91.2%

Q: What about the viability, T/C [23] of the same molecule?
A: 89.3%

Q: What about the viability, T/C [24] of the same molecule?
A: 87.4%
